This is an account of results in ChEMBL document CHEMBL1201862, “PubChem BioAssay data set” (2004).

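Test compounds were applied to cells in 96-well plates for 48 hours at 5 doses. GI50 marks 50% less growth.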 Active and inactive are the calls of the source. Cut-off read from the data, not from the text of the source: active = GI50 up to about 1.1 µM and inactive = higher.

In general, GI50 refers to the concentration that inhibits growth by half.

Some test systems named below: 786-0; ACHN; EKVX; HCT-15; HT-29; IGROV-1; K562; LOX IMVI; NCI-H460; NCI-H522; SF-268; SK-MEL-5; UACC-257; UACC-62; UO-31.
Holding throughout (assay): DTP human tumour cell line panel, 48 h

Consider `C=CCN(N=O)C(=O)NCCCCC(NC(C)=O)C(=O)NCc1ccccc1` (configuration not stated), for which the GI50 is > 100 µM (inactive) in the assay with 786-0; > 100 µM (inactive) with ACHN; > 100 µM (inactive) in the assay with EKVX; > 100 µM with HCT-15; > 100 µM (inactive) in the assay with HT-29; > 100 µM (inactive) in the assay with IGROV-1. In addition, the GI50 in the assay with K562, in the assay with LOX IMVI, in the assay on NCI-H460, with NCI-H522, with SF-268 and in the assay with SK-MEL-5 was > 100 µM (inactive) throughout. Moreover, the GI50 in the assay on UACC-257, in the assay on UACC-62 and with UO-31 was > 100 µM (inactive) in each case.
As to `c1ccc2c(c1)n1nnnc1c1nnnn21`, the GI50 with 786-0 is 83.4 µM (inactive); in the assay on ACHN, > 100 µM (inactive); in the assay with EKVX it was > 100 µM (inactive); in the assay with HCT-15, > 100 µM; in the assay with HT-29 it was > 100 µM (inactive); in the assay on IGROV-1, > 100 µM (inactive). In addition, the GI50 is > 100 µM (inactive) in the assay on K562; 33.5 µM (inactive) in the assay on LOX IMVI; > 100 µM (inactive) in the assay with NCI-H460; 12.6 µM (inactive) with NCI-H522; 85.1 µM (inactive) with SF-268; > 100 µM (inactive) with SK-MEL-5. Moreover, the GI50 with UACC-257, with UACC-62 and with UO-31 was > 100 µM (inactive) in each case.
Consider `N/N=C1\C(=O)N(c2ccc(Cl)c(Cl)c2)C(=O)C1C(=O)Nc1ccc(Cl)c(Cl)c1` (configuration not stated), for which the GI50 in the assay with 786-0 is 89.5 µM (inactive); in the assay with ACHN, 43.2 µM (inactive); with EKVX, 89.1 µM (inactive); in the assay on HCT-15, 50.7 µM; in the assay with HT-29, 49.9 µM (inactive); in the assay with IGROV-1 it was 73.8 µM (inactive). Further, the GI50 with K562 is 34.8 µM (inactive); with NCI-H460, 54.5 µM (inactive); in the assay on NCI-H522 it was 50.9 µM (inactive); in the assay on SF-268 it was 55.1 µM (inactive); with SK-MEL-5 it was 17.5 µM (inactive); in the assay on UACC-257, 71 µM (inactive). In addition, the results for the GI50 with UACC-62 and in the assay on UO-31 were 51.4 µM (inactive) and 19.8 µM (inactive), respectively.
`CC(=O)OC1(C#N)CC2OC1C1C2N1C(=O)c1ccccc1` (configuration not stated): the GI50 in the assay on 786-0 was > 100 µM (inactive); in the assay with ACHN, > 100 µM (inactive); in the assay on EKVX, > 100 µM (inactive); in the assay with HCT-15, > 100 µM; in the assay on IGROV-1, > 100 µM (inactive); in the assay with K562, > 100 µM (inactive). Besides, the GI50 in the assay on LOX IMVI, with NCI-H460, with NCI-H522, in the assay on SF-268, in the assay on SK-MEL-5 and with UACC-62 was > 100 µM (inactive) throughout. Moreover, in the assay with UO-31, the GI50 was > 100 µM (inactive).
For `NC(=S)N1N=C2c3ccccc3CC[C@H]2[C@@H]1c1ccc(Cl)cc1`, the GI50 in the assay on 786-0 is 30.6 µM (inactive); in the assay on ACHN it was 24.4 µM (inactive); in the assay with EKVX, 37.8 µM (inactive); in the assay with HCT-15, 33.3 µM; in the assay with HT-29, 24.9 µM (inactive); in the assay on IGROV-1, 19.4 µM (inactive). In addition, the GI50 in the assay on K562 is 19.5 µM (inactive); with LOX IMVI it was 34.8 µM (inactive); in the assay on NCI-H460, 27 µM (inactive); in the assay with NCI-H522 it was 9.18 µM (inactive); with SF-268, 32.5 µM (inactive); with UACC-257 it was 25.2 µM (inactive). Further, the GI50 in the assay with UACC-62 was 27.9 µM (inactive); in the assay on UO-31, 20.8 µM (inactive).
For `Cc1cc(C)c(N)c(C)c1N`, the GI50 was > 100 µM (inactive) with 786-0; > 100 µM (inactive) with ACHN; > 100 µM (inactive) with EKVX; > 100 µM in the assay on HCT-15; > 100 µM (inactive) in the assay with IGROV-1; > 100 µM (inactive) in the assay with K562. The GI50 in the assay with LOX IMVI, with NCI-H460, in the assay on NCI-H522, in the assay with SF-268, in the assay with SK-MEL-5 and in the assay on UACC-257 was > 100 µM (inactive) throughout. The GI50 with UACC-62 and with UO-31 was > 100 µM (inactive) in each case.
With `Cc1[nH]c2cc([N+](=O)[O-])ccc2c1[N+](=O)[O-]`, the GI50 in the assay with 786-0 is 29 µM (inactive); with ACHN, 15.5 µM (inactive); in the assay on EKVX it was 11.7 µM (inactive); in the assay with HT-29 it was 27.9 µM (inactive); with IGROV-1, 26.2 µM (inactive); in the assay with K562, 22.2 µM (inactive). Besides, the GI50 in the assay with LOX IMVI was 24.6 µM (inactive); in the assay on NCI-H460 it was 20.6 µM (inactive); in the assay on NCI-H522 it was 13.3 µM (inactive); in the assay with SF-268, 22.1 µM (inactive); in the assay with SK-MEL-5, 14 µM (inactive); in the assay with UACC-257, 17 µM (inactive). In the assay on UO-31, the GI50 was 7.96 µM (inactive).
Take `CC(C)c1cccc(C(C)C)c1NC(=O)C(=O)CC(=O)CC(c1ccccc1)c1c(O)oc2ccccc2c1=O` (configuration not stated): the GI50 with 786-0, in the assay with ACHN, in the assay on EKVX, in the assay on HT-29, in the assay on IGROV-1 and in the assay with K562 was > 100 µM (inactive) in each case. For the same compound, the GI50 in the assay with NCI-H460, in the assay on NCI-H522, with SF-268, with SK-MEL-5, in the assay with UACC-257 and in the assay with UACC-62 was > 100 µM (inactive) each time. Also, the GI50 in the assay with UO-31 was > 100 µM (inactive).
For `COc1cc2c(OC)cc1CSCc1sc(C)c(c1Br)CSC2`, the GI50 with 786-0 was > 100 µM (inactive); with ACHN, > 100 µM (inactive); in the assay with EKVX, > 100 µM (inactive); with HCT-15, > 100 µM; with HT-29 it was > 100 µM (inactive); in the assay with IGROV-1, > 100 µM (inactive). Moreover, the GI50 in the assay with K562, with LOX IMVI, in the assay on NCI-H460, with SF-268, in the assay on SK-MEL-5 and in the assay on UACC-257 was > 100 µM (inactive) each time. Besides, the GI50 in the assay with UACC-62 and with UO-31 was > 100 µM (inactive) throughout.
On to `O=c1nc2occc2cn1C1CC(O)C(CO)O1` (configuration not stated), for which the GI50 with 786-0 is > 100 µM (inactive); in the assay on ACHN, > 100 µM (inactive); in the assay on EKVX, > 100 µM (inactive); in the assay on HCT-15, > 100 µM; with HT-29 it was > 100 µM (inactive); with IGROV-1, > 100 µM (inactive). The GI50 in the assay with K562, in the assay on LOX IMVI, in the assay on NCI-H460, with SF-268, in the assay on SK-MEL-5 and in the assay with UACC-257 was > 100 µM (inactive) each time. Besides, the GI50 in the assay with UACC-62 and in the assay on UO-31 was > 100 µM (inactive) throughout.
Turning to `O=NN(CCCl)C(=O)N[C@H]1CCCC[C@@H]1Cl`, the GI50 with 786-0 is 37.8 µM (inactive); in the assay with ACHN, 57.7 µM (inactive); in the assay on EKVX it was > 100 µM (inactive); in the assay with HCT-15 it was > 100 µM; with HT-29 it was 79.6 µM (inactive); with IGROV-1, > 100 µM (inactive). For the same compound, the GI50 in the assay on K562 was 55.8 µM (inactive); in the assay with NCI-H460, 29.4 µM (inactive); in the assay on NCI-H522 it was > 100 µM (inactive); in the assay on SF-268, 16.7 µM (inactive); in the assay with SK-MEL-5 it was > 100 µM (inactive); with UO-31, > 100 µM (inactive).
Take `O=C1CCC(=O)N1Sc1ccccc1`: the GI50 in the assay with 786-0 is > 100 µM (inactive); with ACHN, > 100 µM (inactive); in the assay with EKVX it was > 100 µM (inactive); with HCT-15, > 100 µM; in the assay with IGROV-1, > 100 µM (inactive); with K562, > 100 µM (inactive). Also, the GI50 in the assay on LOX IMVI, with NCI-H460, in the assay with NCI-H522, in the assay on SF-268, in the assay with SK-MEL-5 and in the assay with UACC-257 was > 100 µM (inactive) throughout. Also, the GI50 in the assay on UACC-62 and in the assay with UO-31 was > 100 µM (inactive) throughout.
Consider `CC(=O)/C=C1/c2ccccc2N(C(C)=O)C1O` (configuration not stated), for which the GI50 in the assay with 786-0 is > 100 µM (inactive); with ACHN, > 100 µM (inactive); with EKVX, > 100 µM (inactive); with HCT-15, > 100 µM; in the assay on HT-29, > 100 µM (inactive); with IGROV-1, > 100 µM (inactive). Further, the GI50 in the assay on K562, with NCI-H460, with UACC-257, in the assay on UACC-62 and in the assay on UO-31 was > 100 µM (inactive) throughout.
Turning to `COC(=O)c1ccc(N/C=C(/C#N)c2ccsc2)cc1`, the GI50 is 11.1 µM (inactive) in the assay on 786-0; 5.97 µM (inactive) in the assay on ACHN; 15.9 µM (inactive) with EKVX; 50.9 µM in the assay with HCT-15; 11.1 µM (inactive) with HT-29; 27.1 µM (inactive) with IGROV-1. The GI50 is > 100 µM (inactive) in the assay on K562; 32.6 µM (inactive) with NCI-H460; 10.9 µM (inactive) in the assay on SF-268; 32.6 µM (inactive) with UACC-257; 20.5 µM (inactive) in the assay with UACC-62; 14.4 µM (inactive) in the assay on UO-31.
Turning to `CCCCCCCCCCCC[N+](CCCCCCCCCCCC)=C1SCCS1`, the GI50 in the assay on 786-0 was 3.52 µM (inactive); in the assay on ACHN it was 12.5 µM (inactive); in the assay on EKVX it was 13.1 µM (inactive); in the assay on HCT-15, 10.7 µM; with HT-29, 3.36 µM (inactive); in the assay on IGROV-1, 10.5 µM (inactive). Also, the GI50 in the assay with LOX IMVI was 1.97 µM (inactive); with NCI-H460 it was 7.28 µM (inactive); in the assay with NCI-H522, 5.82 µM (inactive); in the assay with SF-268 it was 8.04 µM (inactive); in the assay on SK-MEL-5 it was 6.07 µM (inactive); in the assay on UACC-257 it was 9.14 µM (inactive). Further, the GI50 is 10.8 µM (inactive) in the assay with UACC-62 and 13.4 µM (inactive) in the assay with UO-31.
